Assay results: patent US20120009280A1, “METHOD OF REDUCING THE RATE OF DEGRADATION OF A BIOLOGICAL MATERIAL” (Bio-Energy Ingredients Limited, priority 2009, published 2012)

Tests used:
[1] = system: yeast; test: Yeast count of spent brewer's / wet distiller's grains stored at ambient temperature; format: cell-based
Description: (§1) Samples of Portion 1 (“AR”), Portion 3 (“SO”) and Portion 5 (“SH”) were then delivered to a microbiological testing facility about 15 kilometres from the treatment laboratory. Each was tested for initial total microbial, yeast and mould counts, respectively.
(§2) Separate untreated samples were similarly stored under insect-proof screens at ambient temperature for seven days (as shown in Tables 1 and 2). During the trial period the ambient temperature ranged from 11 to 33 degrees C.
(§3) The free moisture content on the initial spent brewer's grains was determined to be 78.1% m/m. After exposure to the environment for seven days, all of the samples were tested at a South African National Accreditation System (SANAS) approved microbiological testing facility. Each was tested for total micro-organism, yeast and mould counts to determine the affect of the various treatments. A similar procedure to that described in K. A. Rosentrater et al, Food Bioprocess Technol (2008) was used for the microbiological evaluation.
(§4) At the laboratory, the samples were thoroughly mixed and initially split into a first portion (Portion 1) and a second portion (Portion 2). Portion 1 was left untreated. A sample of Portion 1, was delivered immediately to a microbiological testing facility about 15 kilometres away from the treatment laboratory and was tested for initial total microbial, yeast and mould counts, respectively. No water removal prior to treatment was done in this experiment as was the case in Example 8 wherein a similar wet material was partially dewatered by pressing and the residue treated with 10% (w/w/) calcium oxide.
(§5) Samples from Portion 2 were subjected to treatment with varying amounts of a powdered, commercially-available calcium oxide containing approximately 94% calcium oxide (CaO) as shown in Table 32. The treatments varied from 2.5 to 10% (w/w) calcium oxide addition. The samples were stored in batches (according to the calcium oxide treatment) under insect-proof screens at ambient temperature for fifty six days. Separate untreated samples were similarly stored under insect-proof screens at ambient temperature for a total of 56 days. During the trial period the ambient temperature ranged from 10 to 30 degrees C. As this period was the southern hemisphere spring/early summer, the humidity as well as ambient temperatures varied widely.
(§6) The free moisture content on the initial spent brewer's grains was determined to be 79.4% m/m. After exposure to the environment for seven days, all of the samples were tested at a South African National Accreditation System (SANAS) approved microbiological testing facility. Each was tested for total micro-organism, yeast and mould counts to determine the affect of the various treatments. A similar procedure to that described in K. A. Rosentrater et al, Food Bioprocess Technol (2008) was used for the microbiological evaluation.
(§7) Samples from each treatment were drawn every seven days. No further calcium oxide treatment or agitation took place after the initial mix. In each case the entire sample was isolated and delivered to the microbiological testing facility.
(§8) The calcium oxide treatment trial described in Example 9 wherein wet distiller's grains were treated with 2.5%, 5% and 10.0% calcium oxide, respectively, versus untreated material was repeated using lower doses of calcium oxide. In this trial the same source of wet distiller's grains (again with now partial water removal prior to treatment) was treated. Also, the same protocol as described in Example 9 was applied, but at lower doses of calcium oxide i.e. 0.5%, 1.0%, 1.5%, 2.0% and 2.5%, respectively, versus untreated material.
(§9) In this trial the same source of wet distiller's grains (again with now partial water removal prior to treatment) was treated. Also, the same protocol as described in Example 9 was applied.

[2] = system: mould; test: Mould count of spent brewer's / wet distiller's grains stored at ambient temperature; format: cell-based
Description: as §1, §2, §3, §4
as §5, with “The treatments varied from 2.5 to 10% (w/w) calcium oxide addition.” left out
as §6, §7, §8, §9

[3] = wet distiller's grains, 0.5% CaO (w/w), day 2
[4] = wet distiller's grains, 1.0% CaO (w/w), day 1
[5] = wet distiller's grains, 1.5% CaO (w/w), day 10
[6] = wet distiller's grains, 2.0% CaO (w/w), day 2
[7] = wet distiller's grains, 2.5% CaO (w/w), day 14
[8] = wet distiller's grains, 5.0% CaO (w/w), day 21
[9] = wet distiller's grains, 10.0% CaO (w/w), day 14

[O]=[Ca] [calcium oxide]
120 cfu/gram: Yeast Count [1, 9]
52,000 cfu/gram: Yeast Count [1, 7]
91000 cfu/gram: Mould Count ([2]; wet distiller's grains, 1.0% CaO (w/w), day 10)
14,000 cfu/gram: Mould Count [2, 7]
16 cfu/gram: Mould Count ([2]; wet distiller's grains, 10.0% CaO (w/w), day 56)
30 cfu/gram: Mould Count [2, 3]
90 cfu/gram: Mould Count ([2]; wet distiller's grains, 5.0% CaO (w/w), day 49) | Mould Count ([2]; wet distiller's grains, 5.0% CaO (w/w), day 56)
80 cfu/gram: Mould Count ([2]; wet distiller's grains, 10.0% CaO (w/w), day 49)
320,000 cfu/gram: Mould Count ([2]; wet distiller's grains, 2.5% CaO (w/w), day 49)
<110 cfu/gram: Mould Count [2, 5]
1,240,000 cfu/gram: Mould Count ([2]; wet distiller's grains, 2.5% CaO (w/w), day 56)
150 cfu/gram: Mould Count [2, 8]
170,000 cfu/gram: Mould Count ([2]; wet distiller's grains, 2.5% CaO (w/w), day 21)
70 cfu/gram: Mould Count ([2]; wet distiller's grains, 10.0% CaO (w/w), day 42)
10 cfu/gram: Yeast Count ([1]; 5% CaO (w/w) powder, week 4) | Yeast Count [1, 8] | Mould Count ([2]; 5% CaO (w/w) powder, week 1) | Mould Count ([2]; 5% CaO (w/w) powder, week 2) | Mould Count ([2]; 5% CaO (w/w) powder, week 3) | Mould Count ([2]; 5% CaO (w/w) powder, week 4) | Mould Count ([2]; 5% CaO (w/w) powder, week 5) | Mould Count ([2]; wet distiller's grains, 2.5% CaO (w/w), day 7) | Mould Count ([2]; wet distiller's grains, 5.0% CaO (w/w), day 7) | Mould Count ([2]; wet distiller's grains, 5.0% CaO (w/w), day 14) | Mould Count ([2]; wet distiller's grains, 10.0% CaO (w/w), day 7) | Mould Count [2, 9] | Mould Count ([2]; wet distiller's grains, 10.0% CaO (w/w), day 21)
37000 cfu/gram: Mould Count ([2]; wet distiller's grains, 0.5% CaO (w/w), day 6)
<10 cfu/gram: Yeast Count [1, 3] | Yeast Count [1, 4] | Yeast Count [1, 5] | Yeast Count [1, 6] | Mould Count ([2]; wet distiller's grains, 0.5% CaO (w/w), day 1) | Mould Count ([2]; wet distiller's grains, 0.5% CaO (w/w), day 8) | Mould Count [2, 4] | Mould Count ([2]; wet distiller's grains, 1.0% CaO (w/w), day 2) | Mould Count ([2]; wet distiller's grains, 1.0% CaO (w/w), day 3) | Mould Count ([2]; wet distiller's grains, 1.0% CaO (w/w), day 6) | Mould Count ([2]; wet distiller's grains, 1.0% CaO (w/w), day 8) | Mould Count ([2]; wet distiller's grains, 1.5% CaO (w/w), day 1) | Mould Count ([2]; wet distiller's grains, 1.5% CaO (w/w), day 2) | Mould Count ([2]; wet distiller's grains, 1.5% CaO (w/w), day 3) | Mould Count ([2]; wet distiller's grains, 1.5% CaO (w/w), day 6) | Mould Count ([2]; wet distiller's grains, 1.5% CaO (w/w), day 8) | Mould Count ([2]; wet distiller's grains, 2.0% CaO (w/w), day 1) | Mould Count [2, 6] | Mould Count ([2]; wet distiller's grains, 2.0% CaO (w/w), day 3) | Mould Count ([2]; wet distiller's grains, 2.0% CaO (w/w), day 6) | Mould Count ([2]; wet distiller's grains, 2.0% CaO (w/w), day 8) | Mould Count ([2]; wet distiller's grains, 2.0% CaO (w/w), day 10) | Mould Count ([2]; wet distiller's grains, 2.5% CaO (w/w), day 1) | Mould Count ([2]; wet distiller's grains, 2.5% CaO (w/w), day 2) | Mould Count ([2]; wet distiller's grains, 2.5% CaO (w/w), day 3) | Mould Count ([2]; wet distiller's grains, 2.5% CaO (w/w), day 6) | Mould Count ([2]; wet distiller's grains, 2.5% CaO (w/w), day 8) | Mould Count ([2]; wet distiller's grains, 2.5% CaO (w/w), day 10)
100 cfu/gram: Mould Count ([2]; wet distiller's grains, 0.5% CaO (w/w), day 3)
850,000 cfu/gram: Mould Count ([2]; wet distiller's grains, 2.5% CaO (w/w), day 42)
20 cfu/gram: Mould Count ([2]; wet distiller's grains, 5.0% CaO (w/w), day 42)
